Results as given in patent publication US20190307886A1, “A CO-AMORPHOUS FORM OF A SUBSTANCE AND A PROTEIN” (University of Copenhagen, priority 2016, published 2019).

Tests used:
Format in all cases: physicochemical
[1] = Thermogravimetric analysis for measurement of residual moisture; conditions: Table 1a; amorphous drugs and spray dried forms with WPI, WPH, WPI components, digested WPI, PVP
Experimental: Thermogravimetric analysis for measurement of residual moisture:
Thermogravimetric analysis was performed on a TGA Discovery instrument (TA Instruments, New Castle, USA). Samples of 10 mg were placed in a platinum pan and sealed with a lid and heated from 25 to 300° C. at 10° C./min. Resulting weight-temperature diagrams were analyzed using Trios software (TA Instruments, New Castle, USA) to calculate the weight loss between 25 and 150° C.

[2] = Intrinsic dissolution rate from powder compacts; conditions: for y (mg cm^−2 min^−1), line equation of intrinsic dissolution testing; slope = intrinsic dissolution rate: Table 2a, 0.1 M phosphate buffer pH 7.2, 37° C., 50 rpm; for intrinsic dissolution rate (IDR): phosphate buffer pH 7.2, 37° C.
Experimental: The intrinsic dissolution rate (IDR) was determined from powder compacts obtained with a hydraulic press (PerkinElmer, Hydraulische Presse Model IXB-102-9, Ueberlingen, Germany). Ball-milled powders of pure drug and spray dried powders of drug-protein mixtures were compressed into tablets. Tablets of 150 mg were directly compressed into stainless steel cylinders that served as intrinsic dissolution sample holders at a pressure of 124.9 MPa for 45 secs. […] These cylinders were then placed in 900 ml of 0.1 M phosphate buffer (pH 7.2, 37° C.) dissolution medium and stirred using a magnetic bar at a rotation speed of 50 rpm. At predetermined time points (1, 5, 10, 15, 20, 25 and 30 min, some IDRs were only determined up to 20 min), 5 ml aliquots were withdrawn and immediately replaced with dissolution buffer. The obtained samples were then analyzed using UV spectrophotometer (see below). All dissolution experiments were conducted in triplicate.

[3] = Physical stability on storage over silica gel at room temperature, XRPD; conditions: recrystallization shown by XRPD
Experimental: The molecular interactions of the drug substance-WPI/WPH mixtures were investigated by XRPD using an X'Pert PANanalytical PRO X-ray diffractometer (PANanalytical, Almelo, The Netherlands) with Cukα radition: 1.54187 Å, current: 40 mA and acceleration voltage: 45 kV. Each of the co-amorphous forms obtained either by spray drying or ball milling were scanned (scan rate of 0.067° 2θ/s and step size of 0.026°) with reflectance mode between 2° and 35° 2θ. The collected data was analysed using X'Pert PANanalytical Collector software (PANanalytical, Almelo, The Netherlands).
All samples were stored in a desiccator over silica gel (0% relative humidity) at room temperature and a physical stability study was performed for all SD samples. Each sample was analyzed by XRPD at day 0 and subsequently once every month thereafter.

[4] = Powder dissolution (USP II apparatus)
Experimental: Powder dissolution was performed in USP type II apparatus. […] The dissolution paddles were rotated at 50 rpm […] taking samples out at 1, 3, 5, 7, 10, 15, 20, 25, 30, 35, 40, 50, 60 and 120 mins. Each sample of 5 ml was taken out and replaced by dissolution medium. To separate powders from medium, the samples were filtered through a 0.45 μm syringe filter (Qmax, Frisinette ApS) and the first 2 ml was discarded to minimize losses due to adsorption. The samples were examined using UV Vis to analyze the drug concentration.

| Structure (SMILES) | TGA (residual moisture content in %) [1] [%] | y (mg cm^−2 min^−1), line equation of intrinsic dissolution testing; slope = intrinsic dissolution rate [2] | time found to be stable (in words) [3] | further results |
| --- | --- | --- | --- | --- |
| COc1ccccc1OCCNCC(O)COc1cccc2[nH]c3ccccc3c12 (centres unmarked) [A CAR, carvedilol] | 3.1 ± 0.3 | y = 0.0214x + 2.973 mg cm^−2 min^−1 | less than a week | intrinsic dissolution rate (IDR) ([2]; listed as ball milled amorphous CAR): 0.0214 mg cm^−2 min^−1; fold increase in IDR compared to crystalline CAR ([2]; vs C CAR): 1.8 fold |
| NS(=O)(=O)c1cc(C(=O)O)c(NCc2ccco2)cc1Cl [A FUR, furosemide] | 3.6 ± 0.3 |  | less than a week |  |
| COc1ccc2c(c1)c(CC(=O)O)c(C)n2C(=O)c1ccc(Cl)cc1 [A IND, indomethacin] | 3.2 ± 0.4 | y = 0.1333x + 4.5538 mg cm^−2 min^−1 | less than a week | intrinsic dissolution rate (IDR) ([2]; listed as amorphous ball milled IND): 0.1333 mg cm^−2 min^−1; powder dissolution (comparison in words) ([4]; USP type II, 200 mg in 50 ml phosphate buffer pH 7.2, 50 rpm): more dissolution than the PM IND-WPI; solubility of IND in its amorphous state ([4]; phosphate buffer pH 7.2, vs crystalline IND): more than double the value crystalline IND |
| CC(=O)Nc1ccc(O)cc1 [A PAR, paracetamol] |  | y = 0.201x + 4.5947 mg cm^−2 min^−1 | less than a week | intrinsic dissolution rate (IDR) ([2]; listed as ball milled amorphous PAR): 0.201 mg cm^−2 min^−1; fold increase in IDR compared to crystalline PAR ([2]; vs C PAR): 1.2 fold |
| COc1ccccc1OCCNCC(O)COc1cccc2[nH]c3ccccc3c12 (centres unmarked) [C CAR, carvedilol] |  | y = 0.0117x + 2.8082 mg cm^−2 min^−1 |  | intrinsic dissolution rate (IDR) ([2]; listed as crystalline CAR): 0.0117 mg cm^−2 min^−1 |
| COc1ccc2c(c1)c(CC(=O)O)c(C)n2C(=O)c1ccc(Cl)cc1 [C IND, indomethacin] |  | y = 0.0787x + 4.006 mg cm^−2 min^−1 |  | intrinsic dissolution rate (IDR) ([2]; listed as crystalline IND): 0.0787 mg cm^−2 min^−1 |
| CC(=O)Nc1ccc(O)cc1 [C PAR, paracetamol] |  | y = 0.1632x + 2.3462 mg cm^−2 min^−1 |  | intrinsic dissolution rate (IDR) ([2]; listed as crystalline PAR): 0.1632 mg cm^−2 min^−1 |
